Assays:
Cytochrome P450 2D6 = Cytochrome P450 2D6 (Homo sapiens, UniProt P10635); assay: Inhibition of CYP2D6; format: ADME
Cytochrome P450 2C9 = Cytochrome P450 2C9 (Homo sapiens, UniProt P11712); assay: Inhibition of CYP2C9; format: ADME
Liver microsomes [1] = assay: Clearance in human liver microsome; format: ADME
Rattus norvegicus = assay: Reduction in glucose level in fa/fa rat after oral glucose tolerance test at 0.3 mg/kg administered 2 hrs before glucose challenge; format: functional; parameters: scale not given: the % may be the effect or the level left
[2] = Distribution coefficient, log D at pH 7.4; format: physicochemical; conditions: octanol/water
[3] = Permeability coefficient across PAMPA; format: ADME; conditions: read-out: permeability
Cytochrome P450 3A4 = Cytochrome P450 3A4 (Homo sapiens, UniProt P08684); assay: Inhibition of CYP3A4; format: ADME
[4] = Solubility of the compound; format: physicochemical
Liver microsomes [5] = assay: Clearance in rat liver microsome; format: ADME

Cytochrome P450 3A4, sequence (P08684 whole entry): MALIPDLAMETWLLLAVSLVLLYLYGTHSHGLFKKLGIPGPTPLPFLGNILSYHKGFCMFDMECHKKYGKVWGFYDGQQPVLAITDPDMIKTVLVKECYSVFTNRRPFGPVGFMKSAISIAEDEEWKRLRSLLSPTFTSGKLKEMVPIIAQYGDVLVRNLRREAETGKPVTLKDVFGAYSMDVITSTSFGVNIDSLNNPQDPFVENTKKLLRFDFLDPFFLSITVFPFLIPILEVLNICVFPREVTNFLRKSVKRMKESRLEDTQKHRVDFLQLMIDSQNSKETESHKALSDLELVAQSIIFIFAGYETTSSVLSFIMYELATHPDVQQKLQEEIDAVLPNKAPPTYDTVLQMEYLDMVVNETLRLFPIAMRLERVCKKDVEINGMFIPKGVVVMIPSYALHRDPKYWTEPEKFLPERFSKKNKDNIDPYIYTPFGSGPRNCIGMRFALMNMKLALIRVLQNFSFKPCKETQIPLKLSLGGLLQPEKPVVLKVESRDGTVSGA
Cytochrome P450 2C9, sequence (P11712 whole entry): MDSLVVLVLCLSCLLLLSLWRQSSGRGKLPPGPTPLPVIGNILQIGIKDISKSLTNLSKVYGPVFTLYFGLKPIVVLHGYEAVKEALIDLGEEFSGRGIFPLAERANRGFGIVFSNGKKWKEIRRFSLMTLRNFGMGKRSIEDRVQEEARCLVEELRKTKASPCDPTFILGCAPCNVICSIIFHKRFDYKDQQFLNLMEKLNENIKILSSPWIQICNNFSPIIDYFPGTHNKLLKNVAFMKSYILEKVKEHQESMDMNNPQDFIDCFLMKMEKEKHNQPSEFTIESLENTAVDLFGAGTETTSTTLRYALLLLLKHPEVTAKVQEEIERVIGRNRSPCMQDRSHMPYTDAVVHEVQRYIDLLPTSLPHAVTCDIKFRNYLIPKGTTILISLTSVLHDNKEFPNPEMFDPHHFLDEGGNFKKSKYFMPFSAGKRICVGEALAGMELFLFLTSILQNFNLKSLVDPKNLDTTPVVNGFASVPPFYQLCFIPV
Cytochrome P450 2D6, sequence (P10635 whole entry): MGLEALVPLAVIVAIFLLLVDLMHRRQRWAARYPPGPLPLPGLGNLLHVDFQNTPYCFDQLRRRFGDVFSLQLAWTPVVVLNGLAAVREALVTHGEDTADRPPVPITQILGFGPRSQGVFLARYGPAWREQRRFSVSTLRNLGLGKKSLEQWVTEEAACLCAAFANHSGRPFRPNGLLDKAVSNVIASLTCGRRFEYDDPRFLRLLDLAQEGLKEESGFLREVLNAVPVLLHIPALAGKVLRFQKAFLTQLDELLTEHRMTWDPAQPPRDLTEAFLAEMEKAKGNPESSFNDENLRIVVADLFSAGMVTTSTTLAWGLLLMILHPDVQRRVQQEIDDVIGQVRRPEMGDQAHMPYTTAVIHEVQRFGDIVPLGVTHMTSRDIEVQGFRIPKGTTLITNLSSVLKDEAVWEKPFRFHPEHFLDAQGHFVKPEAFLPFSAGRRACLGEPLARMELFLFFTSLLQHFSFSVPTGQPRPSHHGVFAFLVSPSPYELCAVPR

| Compound | IC50 (Cytochrome P450 2D6) | IC50 (Cytochrome P450 2C9) | clearance (Liver microsomes [1]) | Activity (Rattus norvegicus) | logD [2] | Papp [3] | IC50 (Cytochrome P450 3A4) | Solubility [4] | clearance (Liver microsomes [5]) |
| --- | --- | --- | --- | --- | --- | --- | --- | --- | --- |
| CCCC[C@H]1CN2CCc3cc(OC)c(OC)cc3[C@@H]2C[C@@H]1N | > 50 µM | > 50 µM | 0 µL/min/mg | -16% | 0.8 | 2.5 ×10⁻⁶ cm/s | > 50 µM | > 414 µg/mL | 4.7 µL/min/mg |
| COc1cc2c(cc1OC)[C@@H]1C[C@H](N)[C@@H](c3cccc(C)c3)CN1CC2 | 11 µM | 15 µM | 3 µL/min/mg | -41% | 1.3 | 3.4 ×10⁻⁶ cm/s | > 50 µM | > 469 µg/mL | 1 µL/min/mg |

— ChEMBL document CHEMBL1147972, “1,3-disubstituted 4-aminopiperidines as useful tools in the optimization of the 2-aminobenzo[a]quinolizine dipeptidyl peptidase IV inhibitors” (Bioorg Med Chem Lett, 2007)
